The nature of data set [1]: Determination of Log P values of 99mTc-SAAC complexes. Type of data set: physicochemical. The note with it: 99mTc complex; n-octanol / 25 mM pH=7.4 phosphate buffer. The protocol: Determination of Log P Values. The Log P values of the ^99mTc(I)-complexes were determined as follows. The ^99mTc-SAAC complexes were prepared and purified by RP-HPLC. The desired peak was collected and the sample was evaporated under a stream of nitrogen. The residue was dissolved in 25 μL of saline and placed in an equal volume of n-octanol (3 mL) and 25 mM pH=7.4 phosphate buffer (3 mL). The samples were mixed under vortex for 20 min, centrifuged at 8000 rpm for 5 min and three 100 μL aliquots were removed from both the aqueous and the organic layers for analysis on a gamma counter (Wallac 1282). Subsequently, 1 mL of the phosphate bufferTc-complex solution was removed and the process was repeated with fresh n-octanol, for a total number of six extractions to ensure full extraction of all the organic components. The partition coefficients were calculated using the equation: P=(activity concentration in n-octanol)/(activity concentration in aqueous layer). The Log P values reported were calculated from the average of the different measurements.

Data set [2] in a line: Complex stability: 99mTc cysteine and histidine challenge experiments. Type of data set: physicochemical. The note with it: for time stable to excess histidine and cysteine challenges: 99mTc-SAAC complex, 37° C. The protocol:
3. Tc-99m labeling. [^99mTc(CO)3(H2O)3]^+ was heated with [8-{N,N-di(pyridyl-2-methyl)}α-(fmoc)lysine] (DpK) in 0.5 mL (1 mg/mL) of methanol at 100° C. for 30 minutes. […] Labeling yields of >50% RCY, were achievable at levels as low as 2 μg/mL.
Complex stability: ^99mTc challenge experiments. The complexes were analyzed by HPLC for stability against cysteine and histidine challenge over time.

A short description of data set [3]: Rat tissue distribution of 99mTc complexes of example ligands (Table 6). Type of data set: in vivo, Sprague-Dawley Rats. The note with it: 99mTc complex. The protocol:
Rat Tissue Distribution Studies. The distribution and pharmacokinetics of selected ^99mTc-SAAC complexes were evaluated in normal male Sprague Dawley rats (180-200 grams) administered via the tail vein as a bolus injection (approximately 10 μCi/rat) in a constant volume of 0.1 ml. The animals (n=5 per time point) were euthanized by asphyxiation with carbon dioxide at 5, 30, 60, and 120 min post injection. Tissues (blood, heart, lungs, liver, spleen, kidneys, adrenals, stomach, intestines (with contents), testes, skeletal muscle, bone and brain) were dissected, excised, weighed wet, and counted in an automated γ-counter (LKB Model 1282, Wallac Oy, Finland). Tissue time-radioactivity levels expressed as percent injected dose per gram of tissue (% ID/g) was determined.
^99mTc Complexes of various example ligands in Sprague-Dawley Rats.

The target of a further data set is CA-IX (Homo sapiens (Human), UniProt Q16790). Description: Inhibition of carbonic anhydrase enzyme activity (4-nitrophenyl acetate hydrolysis), CA-IX. The note with it: purified human enzyme, pH 7.4, 25° C. Type of data set: biochemical. The protocol: (§1) Selective Inhibition of Carbonic Anhydrase Enzyme Activity. Compounds were tested for their ability to inhibit carbonic anhydrase isozymes II and IX in vitro. Purified human enzymes were from R&D Systems (Minneapolis, Minn.). The inhibition constants (Ki) for CA-II and CA-IX were determined by the method of Pocker and Stone. Initial rates of 4-nitrophenyl acetate hydrolysis catalyzed by the different carbonic anhydrase isozymes were measured spectrophotometrically at 400 nm. Solutions of substrate (1×10^−2 to 1×10^−6 M) were prepared in anhydrous acetonitrile. A molar extinction coefficient of 18,000 M^−1·cm^−1 was used for the 4-nitrophenolate formed by hydrolysis under the conditions of the experiment (9 mM Tris-HCl, 81 mM NaCl, pH 7.4, 25° C.). The enzyme concentrations were 100 nM for CA-IX and 30 nM for CA-II. Non-enzymatic hydrolysis rates, determined in the absence of added enzyme, were subtracted from the observed rates. […] Dilutions of inhibitor were added to enzyme solutions and preincubated for 10 min to allow for the formation of the E-I complex prior to the addition of substrate. Acetazolamide was included in all assays as positive controls.

The target of another data set is CA-II (Homo sapiens (Human), UniProt P00918). Description: Inhibition of carbonic anhydrase enzyme activity (4-nitrophenyl acetate hydrolysis), CA-II. It counts as biochemical. The note with it: purified human enzyme, pH 7.4, 25° C. As for the experimental part:
as §1

Data set [4] can be described thus: Normal rat tissue distribution studies of 99mTc-SAAC complexes (Table 5). It counts as in vivo, male Sprague Dawley rats. The note with it: tail vein, average ± SEM. The protocol: Normal Rat Tissue Distribution Studies. Normal rat tissue distribution studies were performed with [^99mTc(CO)3{η^3-(DpK)}], [Tc(CO)3{η^3-(DTK)}] and [Tc(CO)3{η^3-(PAMAK)}] in groups of male Sprague Dawley rats (n=4/group, 180-200 grams each) at 5, 30, 60, and 120 minutes post injection. The compounds were injected via the tail vein in saline (10 μCi/100 μl). […] All three SAAC ligands had very high accumulation and retention in the gastrointestinal (GI) tract. […] The design of hydrophilic SAAC ligands may alter the pharmacokinetics by mitigating the lipophilicity of the complex and potentially favoring renal, over liver and GI clearance. Such a result may facilitate the development of clinically relevant molecular imaging radiopharmaceuticals with desirable pharmacokinetic properties.

For `NC(CCCCN1CC(=O)[O][Tc-][O]C(=O)C1)C(=O)O.[C-]#[O+].[C-]#[O+].[C-]#[O+]` (centres unmarked) [Compound 7-Tc], the “Log P” value in data set [1] is on record as −2.20.

As for `N[C@@H](CCCCN(Cc1ccccn1)Cc1ccccn1)C(=O)O` [DpK, [ε-{N,N-di(pyridyl-2-methyl)}α-lysine], reference compound], in data set [1], the “Log P” value was −1.89. In addition, the “degradation by HPLC after cysteine or histidine challenge” value in data set [2] (100 mM cysteine or histidine in PBS pH 7.2, 37° C., 18 h) is “no degradation”. The “time stable to excess histidine and cysteine challenges” value in data set [2] was “more than 18 hours”. In data set [3] (5 min), this compound registered a Blood tissue distribution of 0.58 ± 0.05 % ID/g, a GI tissue distribution of 0.49 ± 0.08 % ID/g, a Kidney tissue distribution of 6.05 ± 1.03 % ID/g and a Liver tissue distribution of 3.36 ± 0.44 % ID/g. In data set [3] (5 min), the “Sk. Muscle tissue distribution” value stood at 0.18 ± 0.02 % ID/g. Further, in data set [3] (30 min), the Blood tissue distribution was found to be 0.07 ± 0.01 % ID/g, the GI tissue distribution came out at 0.89 ± 0.07 % ID/g, the Kidney tissue distribution amounted to 4.94 ± 0.11 % ID/g and the Liver tissue distribution is given as 2.75 ± .011 % ID/g. Moreover, in data set [3] (30 min), the “Sk. Muscle tissue distribution” value came out at 0.03 ± 0.00 % ID/g. In addition, in data set [3] (60 min), the Blood tissue distribution came to 0.03 ± 0.01 % ID/g, the GI tissue distribution stood at 1.46 ± 0.09 % ID/g, the Kidney tissue distribution was found to be 4.93 ± 0.43 % ID/g and the Liver tissue distribution is listed as 2.59 ± 0.08 % ID/g. In addition, the “Sk. Muscle tissue distribution” value in data set [3] (60 min) was 0.03 ± 0.01 % ID/g. Besides, in data set [3] (120 min), the Blood tissue distribution stood at 0.01 ± 0.00 % ID/g, the GI tissue distribution is on record as 2.73 ± 0.57 % ID/g, the Kidney tissue distribution is reported as 3.89 ± .042 % ID/g and the Liver tissue distribution stood at 2.20 ± 0.06 % ID/g. The “Sk. Muscle tissue distribution” value in data set [3] (120 min) came out at 0.01 ± 0.00 % ID/g.

As to `N[C@@H](CCCCN(Cc1nccs1)Cc1nccs1)C(=O)O` [DtK, (dithiazole)lysine], the “Log P” value in data set [1] is given as −2.40. For the same compound, the “time stable to excess histidine and cysteine challenges” value in data set [2] was “more than 18 hours”. In data set [3] (5 min), this compound showed a Blood tissue distribution of 3.32 ± 0.82 % ID/g, a GI tissue distribution of 0.3 ± 0.15 % ID/g, a Kidney tissue distribution of 3.26 ± 1.04 % ID/g and a Liver tissue distribution of 1.7 ± 0.42 % ID/g. Moreover, the “Sk. Muscle tissue distribution” value in data set [3] (5 min) is 0.16 ± 0.05 % ID/g. In data set [3] (30 min), this compound displayed a Blood tissue distribution of 2.33 ± 0.26 % ID/g, a GI tissue distribution of 0.59 ± 0.13 % ID/g, a Kidney tissue distribution of 4.71 ± 0.41 % ID/g and a Liver tissue distribution of 1.93 ± 0.15 % ID/g. The “Sk. Muscle tissue distribution” value in data set [3] (30 min) was 0.16 ± 0.01 % ID/g. Also, in data set [3] (60 min), the Blood tissue distribution is recorded as 1.4 ± 0.07 % ID/g, the GI tissue distribution is given as 0.73 ± 0.29 % ID/g, the Kidney tissue distribution is reported as 4.78 ± 0.14 % ID/g and the Liver tissue distribution was 2.05 ± .041 % ID/g. The “Sk. Muscle tissue distribution” value in data set [3] (60 min) is reported as 0.15 ± 0.02 % ID/g. Also, in data set [3] (120 min), the Blood tissue distribution was 0.76 ± 0.12 % ID/g, the GI tissue distribution was 0.87 ± 0.2 % ID/g, the Kidney tissue distribution is recorded as 4.83 ± 0.41 % ID/g and the Liver tissue distribution was determined as 2.61 ± 0.31 % ID/g. Further, in data set [3] (120 min), the “Sk. Muscle tissue distribution” value is reported as 0.12 ± 0.01 % ID/g.

“(pyridylamine)monoacetic acid lysine [PAMA-K]”: the “Log P” value in data set [1] is given as −1.80.

On to “[Re(CO)3][2-((pyridin-2-ylmethyl)(4-sulfamoylphenethyl)amino)acetic acid] [Compound 23-Re]”, for which the IC50 against CA-IX came out at 564 nM; against CA-II, 652 nM.

In data set [4] (5 Min post injection), [^99mTc(CO)3(DPK)] showed a Blood tissue distribution of 7.01 ± 1.38 % ID/g, a GI tissue distribution of 4.65 ± 1.78 % ID/g, a Kidney tissue distribution of 8.88 ± 3.20 % ID/g and a Liver tissue distribution of 16.28 ± 5.12 % ID/g. Besides, in data set [4] (30 Min. post injection), the Blood tissue distribution is recorded as 1.12 ± 0.31 % ID/g, the GI tissue distribution came out at 15.01 ± 1.82 % ID/g, the Kidney tissue distribution is 9.72 ± 0.68 % ID/g and the Liver tissue distribution is given as 26.03 ± 1.50 % ID/g. In data set [4] (60 Min. post injection), this compound returned a Blood tissue distribution of 0.39 ± 0.16 % ID/g, a GI tissue distribution of 24.46 ± 6.20 % ID/g, a Kidney tissue distribution of 9.47 ± 1.23 % ID/g and a Liver tissue distribution of 22.71 ± 1.14 % ID/g. In data set [4] (120 Min post injection), this compound returned a Blood tissue distribution of 0.18 ± 0.01 % ID/g, a GI tissue distribution of 38.90 ± 5.94 % ID/g, a Kidney tissue distribution of 7.08 ± 1.58 % ID/g and a Liver tissue distribution of 14.44 ± 2.75 % ID/g.

(Values after patent publication US8562945B2, “Technetium- and rhenium-bis(heteroaryl) complexes and methods of use thereof” (Molecular Insight Pharmaceuticals, Inc., priority 2008, dated 2013).)
